Laboratory results: patent publication US3950517A, “Insulin derivatives” (National Research Development Corporation, priority 1970, dated 1976)

Columns and labels:
blood sugar = experiment: Blood sugar lowering activity by intravenous injection into laboratory animals; format: in vivo; conditions: Table 2; percentage basis relative to insulin
Source text: (§1) In most cases the new derivatives have an initial bloor sugar lowering effect which is virtually indistinguishable from insulin itself. In contrast the derivatives have less than about 50% of the immunoreactivity of the parent insulin as determined by radioimmunoassay. In many cases the reduction in immunoreactivity (reactivity towards specific insulin antibody) is as low as 30% or even 10% of that of the parent hormone. The figures are expressed on a percentage basis relative to insulin.

[1] = test system: specific insulin antibody; experiment: Radioimmunoassay of immunoreactivity (reactivity towards specific insulin antibody); format: binding; conditions: percentage basis relative to insulin; for Immunoreactivity: Table 2; for Radioimmunoassay Immunoreactivity: Table 1
Source text: as §1

Mouse = Mouse convulsion assay (British Pharmacopoeia, 1968) against neutral insulin standard; format: in vivo; conditions: Table 1; percentage basis relative to insulin
Source text: as §1
The insulin derivatives were separated from trace amounts of urea and salt by elution from a Sephadex G.10 column (2.5 × 60 cm.) equilibrated with 5% aqueous acid and the protein, after lyophilisation, was dried over phosphorous pentoxide at room temperature for 2 days. The derivatives were assayed against a neutral insulin solution (Nuso insulin batch A 354) as standard by the Mouse Convulsion method (British Pharmacopoeia, 1968). All injections were of solutions in acetate buffer, pH 8.0.

Substance | Blood sugar lowering (blood sugar) | Immunoreactivity [1] | Mouse convulsion assay Mean potency (Mouse) | Radioimmunoassay Immunoreactivity [1]
(Carbamyl-Gly)A1 -(Carbamyl-Phe)B1 -(Carbamyl-Lys)B29 -insulin | 100% | 9% | – | –
(Carbamyl-Gly)A1 -(Carbamyl-Phe)B1 -insulin | 100% | 10% | – | –
(Carbamyl-Phe)B1 -insulin | 100% | 23% | – | –
A1, B1, B29 -triacetyl-insulin | – | – | 96% | 10%
Crystalline bovine insulin: Parent bovine insulin, reference set to 100 [reference compound] | 100% | 100% | 100% | 100%
Gly^A1 -monosubstituted insulin (a) carbamyl: Insulin carbamylated at A1 glycine | 100% | – | – | –
Gly^A1 -monosubstituted insulin (b) methylthiocarbamyl: Insulin methylthiocarbamylated at A1 glycine | 100% | 92% | – | –
Gly^A1 -monosubstituted insulins (a) Acetyl (bovine): Bovine insulin acetylated at the A1 glycine amino group | – | – | 105% | 71%
Gly^A1 -monosubstituted insulins (b) Acetoacetyl (bovine): Bovine insulin acetoacetylated at the A1 glycine amino group | – | – | 88% | 87%
Gly^A1 -monosubstituted insulins (c) Thiazolidine (bovine): Bovine insulin acylated at A1 glycine with 2,2-dimethyl-3-formyl-L-thiazolidine-4-carboxylic acid | – | – | 57% | 81%
Gly^A1 Lys^B29 -diacetyl insulin | – | – | 93% | 67%
Lys^B29 -monosubstituted insulins (b) Thiazolidine (bovine): Bovine insulin acylated at B29 lysine with 2,2-dimethyl-3-formyl-L-thiazolidine-4-carboxylic acid | – | – | 101% | 84%
Lys^B29 acetyl insulin | – | – | 114% | 83%
Phe^B1 -Gly^A1 -disubstituted insulins (b) methylthiocarbamyl: Insulin methylthiocarbamylated at A1 and B1 | 100% | 20% | – | –
Phe^B1 -monosubstituted insulins (b) Acetoacetyl (bovine): Bovine insulin acetoacetylated (diketen) at the B1 phenylalanine amino group | – | – | 109% | 8.6%
Phe^B1 -monosubstituted insulins (c) Thiazolidine (bovine): Bovine insulin acylated at B1 phenylalanine with 2,2-dimethyl-3-formyl-L-thiazolidine-4-carboxylic acid | – | – | 103% | 27%
Phe^B1 Gly^A1 -diacetyl insulin | – | – | 90% | 25%
Phe^B1 acetyl insulin | – | – | 100% | 30%
Phe^B1, Gly^A1 -disubstituted insulins (b) Acetoacetyl (bovine): Bovine insulin acetoacetylated at B1 and A1 | – | – | 76% | 14%
Phe^B1, Gly^A1, Lys^B29 -trisubstituted insulins (b) Acetoacetyl (bovine): Bovine insulin acetoacetylated at A1, B1 and B29 | – | – | 77% | 17%
